Data published in US10906884B2, “Benzodiazepine derivatives as CCK2/gastrin receptor antagonists” (Trio Medicines Ltd, priority 2014, dated 2021).
In brackets after ≈: the same amount, converted by molar mass. Like-named read-outs stand apart in the source and are kept apart here.

Columns and labels:
[1] = system: pentagastrin-stimulated gastric acid secretion; test: Pentagastrin-stimulated gastric acid secretion in conscious rats with a chronic gastric fistula; type: in vivo; details: Rattus norvegicus, sc; subcutaneous injection, conscious rats; read-out: ED50, inhibition of pentagastrin-stimulated gastric acid secretion
Protocol: The effect of subcutaneous injections of YF476, (TR2) and (TR3) on pentagastrin-stimulated gastric acid secretion was tested in conscious rats with a chronic gastric fistula.

[2] = Aqueous solubility study in Britton-Robinson's buffer (HPLC-UV); type: physicochemical; details: ambient temperature overnight; for solubility: thermodynamic from solid
Protocol: The test compound (2.5 mg of solid; n=1) was weighed in a clear glass vial and Britton-Robinson's buffer (0.5 mL) was added (pH 2.01, pH 3.06, pH 4.06, pH 5.08, pH 5.99, pH 6.98, and pH 8.16). The solution was agitated at ambient temperature overnight using a vial roller system, and then filtered (0.45 μm pore size; without pre-saturation). Two aliquots (50 μL) were sampled from the filtrate and diluted with one volume of 0.1 N hydrochloric acid and methanol (1:1 v/v) before analysis by HPLC-UV. A standard was prepared in DMSO at 10 mg/mL (n=1) which was then diluted 10-fold in 0.1 N hydrochloric acid and methanol (1:1 v/v) to give a 1 mg/mL solution. The concentration of test compound in the filtrate was quantified relative to the concentration standard.
Analysis was done using a gradient HPLC-UV system with a total cycle time of 6 min. The UV detection between 220 nm and 300 nm was done using a photodiode array detector.
The values given in the table above are for crystalline YF476 and (TR2-A) and amorphous (TR1).

[3] = YF476 serum concentrations and bioavailability in healthy subjects (background); type: in vivo, human
Source text: Bioavailability can be improved by preparing and administering a formulation of amorphous YF476, but this requires stabilisation such as in the form of a solid dispersion on hydroxypropyl methyl cellulose by spray-drying. Even with this processing, bioavailability of YF476 was still low. […] However, it would be beneficial to provide a CCK2/gastrin receptor antagonist where administration with food is not required.

[4] = target: T1, CCK2 (human) (Homo sapiens, UniProt P32239); test: CCK2 receptor functional assay (antagonist effect, cAMP, HTRF); type: cell-based; parameters: expressed in transfected cells; host or cells: CHO cells
T1 sequence (P32239 1-447): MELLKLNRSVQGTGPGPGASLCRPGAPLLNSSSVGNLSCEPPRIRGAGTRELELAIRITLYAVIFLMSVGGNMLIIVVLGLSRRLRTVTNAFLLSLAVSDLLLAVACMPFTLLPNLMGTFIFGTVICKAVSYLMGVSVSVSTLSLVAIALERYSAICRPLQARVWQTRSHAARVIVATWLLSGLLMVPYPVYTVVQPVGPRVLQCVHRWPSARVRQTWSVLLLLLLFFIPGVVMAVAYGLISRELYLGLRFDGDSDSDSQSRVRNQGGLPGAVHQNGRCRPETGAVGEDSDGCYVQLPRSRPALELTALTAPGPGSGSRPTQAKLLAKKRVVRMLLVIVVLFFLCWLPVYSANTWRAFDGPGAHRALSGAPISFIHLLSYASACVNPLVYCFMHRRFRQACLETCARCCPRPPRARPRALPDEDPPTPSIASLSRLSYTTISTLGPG
Source text: (§1) (TR2) and (TR3) were compared with YF476 and YM022 in CCK1 and CCK2 receptor functional assays with the following assay criteria.
(§2) The potency of the antagonists is expressed as IC50, the concentration of antagonist that causes a half-maximum inhibition of the control agonist response. The affinity of the antagonist for the receptor is expressed as KB, the concentration of antagonist, which would occupy 50% of the receptors at equilibrium.

[5] = Pharmacokinetics in healthy subjects, single oral dose, API in capsule; details: human, in vivo
Protocol: In an initial study, healthy volunteers took a single oral dose of 100 mg (TR2) as an active pharmaceutical ingredient (API) in a capsule. Plasma concentrations were measured.
In further clinical studies, healthy volunteers (n=8) took single oral doses of 5, 15, 50 and 100 mg (TR2) as an active pharmaceutical ingredient (API) in a capsule. (Capsule formulation TR2 powder (API) in a hard gelatin capsule, no excipients, no processing). Plasma concentrations were measured.
Healthy volunteers (n=8) took single oral doses of 5, 15, 25 and 50 mg (TR2-A) as API in a capsule (TR2-A (crystalline) in hard gelatin capsule with no excipient, no processing of the API). Plasma concentrations of (TR2) and (TR2-A) were measured. The area under the curve of plasma concentrations of (TR2) after a single oral dose of 50 mg of (TR2-A) API (AUC0-24 h=212.5) was about the same as that observed for a similar formulation of a single oral dose of (TR2) 100 mg (AUC0-24 h=241.5).

[6] = system: AGSGR cells (gastric adenocarcinoma cell line transfected with human gastrin/CCK2 receptor gene); test: Sulphorhodamine-B (SRB) proliferation assay, G17-treated cells; type: cell-based; details: compound 100 nM, G17 10 nM
Protocol: The potency of (TR2) and (TR3) was tested in a sulphorhodamine-B (SRB) proliferation assay in a human gastric adenocarcinoma cell line stably transfected with the human gastrin/CCK2 receptor gene (AGSGR). SRB is a fluorescent dye that binds to proteins, so cells with a high rate of protein synthesis (proliferative cells) will show high levels of fluorescence in the SRB assay. […] (TR2) and (TR3) were compared with the positive controls YF476 and YM022.

[7] = target: T2, CCK1 (human) (Homo sapiens, UniProt P32238); test: CCK1 receptor functional assay (antagonist effect, cAMP, HTRF); type: cell-based; details: stimulus CCK-8s 300 nM, 10 min 37° C., CHO cells
T2 construct: expressed in transfected cells; host or cells: CHO cells
T2 sequence (P32238 1-428): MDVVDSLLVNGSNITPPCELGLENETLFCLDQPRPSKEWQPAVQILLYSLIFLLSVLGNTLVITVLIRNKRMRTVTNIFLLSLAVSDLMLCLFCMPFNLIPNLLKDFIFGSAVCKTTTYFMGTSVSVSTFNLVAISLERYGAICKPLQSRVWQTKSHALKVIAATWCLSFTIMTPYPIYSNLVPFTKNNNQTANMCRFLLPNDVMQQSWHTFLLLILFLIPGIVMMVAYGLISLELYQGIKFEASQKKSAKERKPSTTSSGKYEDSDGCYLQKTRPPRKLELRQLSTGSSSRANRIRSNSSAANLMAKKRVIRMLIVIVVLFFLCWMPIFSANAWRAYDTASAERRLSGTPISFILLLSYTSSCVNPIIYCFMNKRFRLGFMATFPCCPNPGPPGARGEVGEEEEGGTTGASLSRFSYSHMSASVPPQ
Source text: as §1, §2

[8] = target: T1, CCK2 (human); details: Semple et al. 1997; cited from earlier work
[9] = target: T3, rat brain CCK2 receptors (Rattus norvegicus, UniProt P30553); details: cited from earlier work
T3 construct: host or cells: rat brain
T3 sequence (P30553 1-452): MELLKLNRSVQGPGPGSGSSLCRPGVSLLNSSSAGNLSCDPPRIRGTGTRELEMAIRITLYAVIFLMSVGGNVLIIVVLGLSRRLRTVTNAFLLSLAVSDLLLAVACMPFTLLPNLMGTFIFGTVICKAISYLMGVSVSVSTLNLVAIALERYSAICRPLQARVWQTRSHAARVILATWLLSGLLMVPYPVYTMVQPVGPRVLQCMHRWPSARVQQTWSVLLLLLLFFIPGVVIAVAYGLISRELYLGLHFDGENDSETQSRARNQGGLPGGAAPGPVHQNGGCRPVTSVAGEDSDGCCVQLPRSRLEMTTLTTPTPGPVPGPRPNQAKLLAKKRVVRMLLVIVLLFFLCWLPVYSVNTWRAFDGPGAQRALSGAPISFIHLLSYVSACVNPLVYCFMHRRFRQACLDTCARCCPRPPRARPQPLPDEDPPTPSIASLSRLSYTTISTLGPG

[10] = cited from earlier work
[11] = aqueous buffer, pH 2.01, Britton-Robinson's buffer
[12] = aqueous buffer, pH 3.06, Britton-Robinson's buffer
[13] = aqueous buffer, pH 4.06, Britton-Robinson's buffer
[14] = aqueous buffer, pH 5.08, Britton-Robinson's buffer
[15] = aqueous buffer, pH 5.99, Britton-Robinson's buffer
[16] = aqueous buffer, pH 6.98, Britton-Robinson's buffer
[17] = aqueous buffer, pH 8.16, Britton-Robinson's buffer
[18] = pH 2.01, Britton-Robinson's buffer
[19] = pH 3.06, Britton-Robinson's buffer
[20] = pH 4.06, Britton-Robinson's buffer
[21] = pH 5.08, Britton-Robinson's buffer
[22] = pH 5.99, Britton-Robinson's buffer
[23] = pH 6.98, Britton-Robinson's buffer
[24] = pH 8.16, Britton-Robinson's buffer

SMILES	solubility [2, 11]	solubility [2, 12]	solubility [2, 13]	solubility [2, 14]	solubility [2, 15]	solubility [2, 16]	solubility [2, 17]	Inhibition of the anti-proliferative effects of G17 [6]	Aqueous solubility [2, 18]	Aqueous solubility [2, 19]	Aqueous solubility [2, 20]	Aqueous solubility [2, 21]	Aqueous solubility [2, 22]	Aqueous solubility [2, 23]	Aqueous solubility [2, 24]	other results
CNc1cccc(NC(=O)N[C@@H]2N=C(c3ccccn3)c3ccccc3N(CC(=O)C(C)(C)C)C2=O)c1 [YF476, reference compound]	2650 µg/mL (≈ 5320 µM)	99.7 µg/mL (≈ 200 µM)	5.9 µg/mL (≈ 11.8 µM)	1.4 µg/mL (≈ 2.81 µM)	1.3 µg/mL (≈ 2.61 µM)	1.4 µg/mL (≈ 2.81 µM)	1.5 µg/mL (≈ 3.01 µM)	completely inhibited	–	–	–	–	–	–	–	ED50 [1]: 0.012 µmol/kg; Increase of bioavailability by food [3]: 1.6 fold; Serum concentrations ([3]; crystalline form): extremely low and very variable; Selectivity IC50 (CCK1)/IC50 (CCK2) [4]: 308; Selectivity KB (CCK1)/KB (CCK2) [4]: 375; IC50 ([4]; stimulus CCK-8s 10 nM, 10 min 37° C., CHO cells, read-out: CCK2 IC50): 0.52 nM; Kb ([4]; stimulus CCK-8s 10 nM, 10 min 37° C., CHO cells, read-out: CCK2 KB): 0.064 nM; AUC ([5]; po, 100 mg): 198 ng·h/mL; AUC(0-t) ([5]; po, 100 mg): 81.3 ng·h/mL; IC50 [7]: 160 nM; More selective for CCK2 receptors than for CCK1 receptors (compared with YM022) [8]: 5 fold
CNc1cccc(NC(=O)N[C@@H]2N=C(c3ccccn3)c3ccccc3N(CC(=O)C(C)(C)COC(C)=O)C2=O)c1 [TR2-A crystalline]	–	–	–	–	–	–	–	–	4190 µg/mL	730 µg/mL	218 µg/mL	56 µg/mL	47.2 µg/mL	51 µg/mL	45.4 µg/mL	–
CNc1cccc(NC(=O)NC2N=C(c3ccccn3)c3ccccc3N(CC(=O)C(C)(C)CO)C2=O)c1 (racemic) [TR1, 1-[1-(4-Hydroxy-3,3-dimethyl-2-oxo-butyl)-2-oxo-5-pyridin-2-yl-2,3-dihydro-1H-1,4-benzodiazepin-3-yl]-3-(3-methylamino-phenyl)-urea]	5000 µg/mL (≈ 9720 µM)	645 µg/mL (≈ 1250 µM)	58.2 µg/mL (≈ 113 µM)	9.8 µg/mL (≈ 19 µM)	11.6 µg/mL (≈ 22.5 µM)	5.84 µg/mL (≈ 11.3 µM)	7.81 µg/mL (≈ 15.2 µM)	–	–	–	–	–	–	–	–	–
CNc1cccc(NC(=O)N[C@@H]2N=C(c3ccccn3)c3ccccc3N(CC(=O)C(C)(C)COC(C)=O)C2=O)c1 [TR2-A amorphous]	–	–	–	–	–	–	–	–	5000 µg/mL	683 µg/mL	282 µg/mL	128 µg/mL	53.4 µg/mL	43 µg/mL	40.2 µg/mL	–
CNc1cccc(NC(=O)N[C@@H]2N=C(c3ccccn3)c3ccccc3N(CC(=O)C(C)(C)COC(C)=O)C2=O)c1 [TR2-A, (R)-1-[1-(4-Acetoxy-3,3-dimethyl-2-oxo-butyl)-2-oxo-5-pyridin-2-yl-2,3-dihydro-1H-benzo[e][1,4]diazepin-3-yl]-3-(3-methylamino-phenyl)-urea]	–	–	–	–	–	–	–	–	–	–	–	56 µg/mL	–	–	–	solubility ([2]; pH 2.01, aqueous buffer, pH 2.01, Britton-Robinson's buffer): 4190 µg/mL (≈ 7530 µM); solubility ([2]; pH 3.06, aqueous buffer, pH 3.06, Britton-Robinson's buffer): 730 µg/mL (≈ 1310 µM); solubility ([2]; pH 4.06, aqueous buffer, pH 4.06, Britton-Robinson's buffer): 218 µg/mL (≈ 392 µM); solubility ([2]; pH 5.99, aqueous buffer, pH 5.99, Britton-Robinson's buffer): 47.2 µg/mL (≈ 84.8 µM); solubility ([2]; pH 6.98, aqueous buffer, pH 6.98, Britton-Robinson's buffer): 51 µg/mL (≈ 91.6 µM); solubility ([2]; pH 8.16, aqueous buffer, pH 8.16, Britton-Robinson's buffer): 45.4 µg/mL (≈ 81.6 µM); AUC(0-t) ([5]; after single oral doses of (TR2-A), analyte TR2-A, read-out: AUC0-24 h of plasma concentrations of (TR2-A)): < 10 ng·h/mL
Cc1cccc(NC(=O)N[C@@H]2N=C(c3ccccc3)c3ccccc3N(CC(=O)c3ccccc3C)C2=O)c1 [YM022, reference compound]	–	–	–	–	–	–	–	completely inhibited	–	–	–	–	–	–	–	Affinity at rat brain CCK2 receptors [9]: subnanomolar; Affinity at rat brain CCK2 receptors relative to rat pancreatic CCK1 receptors [9]: more than two orders of magnitude higher; Aqueous solubility [10]: low; IC50 [4]: 0.55 nM; Kb [4]: 0.68 nM
